From patent US8999956B2, “N-[(het)arylalkyl)] pyrazole(thio)carboxamides and their heterosubstituted analogues” (Bayer Intellectual Property GmbH, priority 2010, dated 2015)
Like-named read-outs stand apart in the source and are kept apart here.

Test: log P by HPLC on reversed-phase column (EEC Directive 79/831 Annex V.A8)
Format: physicochemical
Experimental: In table 1, the log P values were determined in accordance with EEC Directive 79/831 Annex V.A8 by HPLC (High Performance Liquid Chromatography) on a reversed-phase column (C18), using the method described below: Temperature: 40° C.; […]

Row | logP | SMILES | further results
1 | 3.94 | Cn1nc(C(F)F)c(C(=O)NC(COc2ccc3ccccc3c2)C2CC2)c1Cl (racemic) [Example 138] | 
2 | 3.96 | CN(C(=O)c1c(C(F)F)nn(C)c1Cl)C(COc1ccc2ccccc2c1)C1CC1 (racemic) [Example 140] | 
3 | 3.67 | CN(C(=O)c1c(C(F)F)nn(C)c1Cl)C(COc1ccccc1Cl)C1CC1 (racemic) [Example 146] | 
4 | 2.08 isomer B | CC(O)C1CCCCC1NC(=O)c1c(C(F)F)nn(C)c1F (single isomer, unassigned) [Example 342] | 
5 | 2.10 | Cn1nc(C(F)F)c(C(=O)NCCS(=O)(=O)c2ccc(Cl)cc2)c1F [Example 58] | 
6 | 2.30 | Cn1nc(C(F)F)c(C(=O)NCCS(=O)(=O)c2ccc(Cl)cc2)c1Cl [Example 59] | 
7 | 4.24 | Cn1nc(C(F)F)c(C(=O)NC(CCc2ccc(Cl)cc2)C(C)(C)C)c1F (centres unmarked) [Example 60] | 
8 | 4.41 | Cn1nc(C(F)F)c(C(=O)NC(CCc2ccc(Cl)cc2)C(C)(C)C)c1Cl (centres unmarked) [Example 61] | 
9 | 1.81 | Cc1cc(C)nc(CCC(C)NC(=O)c2c(C(F)F)nn(C)c2Cl)c1 (centres unmarked) [Example 64] | 
10 | 3.44 | CCCN(CCOc1ccc(C(=O)OCC)cc1)C(=O)c1c(C(F)F)nn(C)c1Cl [Example 72] | 
11 | 3.31 | CCCN(CCOc1ccc(C(=O)OCC)cc1)C(=O)c1c(C(F)F)nn(C)c1F [Example 73] | 
12 | 3.60 | Cn1nc(C(F)F)c(C(=O)NCCOc2cccc(Oc3ccccc3)c2)c1Cl [Example 75] | 
13 | 4.11 | CC(CCc1ncc(C(F)(F)F)cc1Cl)N(C(=O)c1c(C(F)F)nn(C)c1Cl)C1CC1 (centres unmarked) [Example 85] | 
14 | 3.92 | CC(CCc1ncc(C(F)(F)F)cc1Cl)N(C(=O)c1c(C(F)F)nn(C)c1F)C1CC1 (centres unmarked) [Example 86] | 
15 | 3.29 | CC(CCc1ncc(C(F)(F)F)cc1Cl)N(C)C(=O)c1c(C(F)F)nn(C)c1F (centres unmarked) [Example 87] | 
16 | 3.45 | CC(CCc1ncc(C(F)(F)F)cc1Cl)N(C)C(=O)c1c(C(F)F)nn(C)c1Cl (centres unmarked) [Example 88] | 
17 | 3.63 | CCC(CCc1sccc1Br)NC(=O)c1c(C(F)F)nn(C)c1Cl (centres unmarked) [Example 90] | 

Row | logP | SMILES | further results
18 | 3.52 | Cn1nc(C(F)F)c(C(=O)N(CCCc2cc3ccccc3o2)C2CC2)c1F [Example 91] | 
19 | 2.90 | Cn1nc(C(F)F)c(C(=O)NCCCc2cc3ccccc3o2)c1F [Example 92] | 
20 | 3.00 | CN(CCCc1cc2ccccc2o1)C(=O)c1c(C(F)F)nn(C)c1F [Example 93] | 
21 | 3.79 | Cn1nc(C(F)F)c(C(=O)N(CCCc2cc3ccccc3s2)C2CC2)c1F [Example 94] | 
22 | 3.17 | Cn1nc(C(F)F)c(C(=O)NCCCc2cc3ccccc3s2)c1F [Example 95] | 
23 | 3.25 | CN(CCCc1cc2ccccc2s1)C(=O)c1c(C(F)F)nn(C)c1F [Example 96] | 
24 | 2.69 | Cn1nc(C(F)F)c(C(=O)NCCCC2Cc3ccccc3O2)c1F (centres unmarked) [Example 97] | 
25 | 1.45 | Cn1nc(C(F)F)c(C(=O)N(CCCC2CC=CO2)C2CC2)c1F (centres unmarked) [Example 98] | 
26 | 2.75 | Cn1nc(C(F)F)c(C(=O)N(CCCc2ccco2)C2CC2)c1F [Example 99] | 
27 | 2.17 | Cn1nc(C(F)F)c(C(=O)NCCCc2ccco2)c1F [Example 100] | 
28 | 2.25 | CN(CCCc1ccco1)C(=O)c1c(C(F)F)nn(C)c1F [Example 101] | 
29 | 3.04 | Cn1nc(C(F)F)c(C(=O)N(CCCc2cccs2)C2CC2)c1F [Example 102] | 
30 | 3.57 | CC(CCc1cccs1)N(C(=O)c1c(C(F)F)nn(C)c1Cl)C1CC1 (centres unmarked) [Example 103] | 
31 | 2.52 | CN(CCCc1cccs1)C(=O)c1c(C(F)F)nn(C)c1F [Example 104] | 
32 | 3.33 | Cc1ccsc1CCCN(C(=O)c1c(C(F)F)nn(C)c1F)C1CC1 [Example 105] | 
33 | 4.21 | Cc1ccc2sc(CCCN(C(=O)c3c(C(F)F)nn(C)c3F)C3CC3)cc2c1 [Example 106] | 

Continued, compound first:

Row | SMILES | logP | further results
34 | CC(C)(C)C#Cc1cccc(N)c1 [3-(3,3-dimethylbut-1-yn-1-yl)aniline] |  | chromatographic logP (reversed-phase HPLC column (C18), HPLC, 0.1% aqueous formic acid and acetonitrile, 40° C., read-out: log P): 2.71
35 | CC(C)N(CC(=O)Nc1ccccc1)C(=O)c1c(C(F)F)nn(C)c1F [Example 1] | 2.25 | 
36 | CC(C)N(CC(=O)Nc1ccccc1)C(=O)c1c(C(F)F)nn(C)c1Cl [Example 2] | 2.43 | 
37 | Cn1nc(C(F)F)c(C(=O)NC2(C(=O)Nc3ccccc3)CCCC2)c1F [Example 3] | 2.46 | 
38 | Cn1nc(C(F)F)c(C(=O)NC2(C(=O)Nc3ccccc3)CCCC2)c1Cl [Example 4] | 2.62 | 
39 | CCCN(CCOc1ccccc1)C(=O)c1c(C(F)F)nn(C)c1Cl [Example 7] | 3.21 | 
40 | CCCN(CCOc1ccccc1)C(=O)c1c(C(F)F)nn(C)c1F [Example 8] | 3.06 | 
41 | CC(COc1ccccc1)N(C)C(=O)c1c(C(F)F)nn(C)c1Cl (centres unmarked) [Example 15] | 2.78 | 
42 | CN(CC(NC(=O)c1c(C(F)F)nn(C)c1Cl)C1CC1)c1ccccc1 (centres unmarked) [Example 18] | 3.31 | 
43 | Cn1nc(C(F)F)c(C(=O)NC(COc2ccccc2)C2CC2)c1Cl (centres unmarked) [Example 20] | 3.25 | 
44 | Cn1nc(C(F)F)c(C(=O)NC(CSc2ccccc2)C2CC2)c1Cl (centres unmarked) [Example 23] | 3.44 | 
45 | Cn1nc(C(F)F)c(C(=O)NC(C)(C)C(=O)Nc2ccccc2)c1F [Example 24] | 2.10 | 
46 | Cn1nc(C(F)F)c(C(=O)NC(C)(C)C(=O)Nc2ccccc2)c1Cl [Example 25] | 2.27 | 
47 | Cn1nc(C(F)F)c(C(=O)NCCOc2ccc(-c3ccccc3)cc2)c1Cl [Example 26] | 3.60 | 
48 | Cn1nc(C(F)F)c(C(=O)NCCOc2ccc(-c3ccccc3)cc2)c1F [Example 27] | 3.44 | 
49 | CCCN(C(=O)c1c(C(F)F)nn(C)c1F)C(C)COc1ccccc1-c1ccccc1 (centres unmarked) [Example 30] | 4.32 | 
50 | CCCN(C(=O)c1c(C(F)F)nn(C)c1Cl)C(C)COc1ccccc1-c1ccccc1 (centres unmarked) [Example 31] | 4.51 | 
51 | CCN(C(=O)c1c(C(F)F)nn(C)c1Cl)C(C)COc1ccc(C)cc1 (centres unmarked) [Example 39] | 3.48 | 
52 | Cc1ccc(SCC(C2CC2)N(C)C(=O)c2c(C(F)F)nn(C)c2Cl)cc1 (centres unmarked) [Example 41] | 3.85 | 
53 | Cn1nc(C(F)F)c(C(=O)NCCOc2ccc(Cl)cc2)c1Cl [Example 49] | 2.96 | 
54 | Cn1nc(C(F)F)c(C(=O)N(CCOc2ccc(Cl)cc2)C2CCC2)c1F [Example 50] | 3.78 | 
55 | Cn1nc(C(F)F)c(C(=O)N(CCOc2ccc(Cl)cc2)C2CCCC2)c1Cl [Example 51] | 4.32 | 
56 | Cn1nc(C(F)F)c(C(=O)N(CCOc2ccc(Cl)cc2)C2CCC2)c1Cl [Example 52] | 3.99 | 
57 | CC(C)N(CCOc1ccc(Cl)cc1)C(=O)c1c(C(F)F)nn(C)c1Cl [Example 53] | 3.78 | 
58 | CCCN(CCOc1ccc(Cl)cc1)C(=O)c1c(C(F)F)nn(C)c1Cl [Example 54] | 3.67 | 
59 | Cn1nc(C(F)F)c(C(=O)N(CCOc2ccc(Cl)cc2)C2CCCC2)c1F [Example 55] | 4.13 | 
60 | CC(C)N(CCOc1ccc(Cl)cc1)C(=O)c1c(C(F)F)nn(C)c1F [Example 56] | 3.62 | 
61 | CCCN(CCOc1ccc(Cl)cc1)C(=O)c1c(C(F)F)nn(C)c1F [Example 57] | 3.53 | 
62 | CC1CCCC(Cc2cccc(Cl)c2)C1NC(=O)c1c(C(F)F)nn(C)c1Cl (centres unmarked) [Example 80] |  | logP (HPLC on reversed-phase column (C18), 40° C., 0.1% aqueous formic acid and acetonitrile, linear gradient 10% to 90% acetonitrile): 4.51
